Measured values reported in patent US4209439A, “Stabilization of vinyl resins” (priority 1977, dated 1980).

Tests used:
[1] = polarographic study of the oxidation potential (Example 30); format: physicochemical; details: acetonitrile, lithium perchlorate; calomel electrode; in V (unit assumed)
Excerpt: 261. Polarographic study of the oxidation potential […]
reference electrode: a calomel electrode which contains, as junction liquid, a saturated solution of anhydrous lithium perchlorate working electrode: rotating electrode of vitreous carbon (2500 r.p.m.) counter-electrode: platinum. acetonitrile, having a water content smaller than 0.1% and not presenting any polarographic waves between -2.5 volts and +2.5 volts.
0.1 M solution of lithium perchlorate in acetonitrile, treated and preserved on a molecular screen of 4 A. […]
exploration amplitude: 0 to 2 V exploration speed: 10 mV/sec.

[2] = polarographic oxidation potential (Example 31); format: physicochemical; details: 0.5 m.mole/liter; methanol/acetic acid; 35° C.
Method: platinum counter-electrode and calomel electrode with filling by a saturated aqueous solution of lithium chloride.
The measurements were carried out in the following solvent:
90 parts of an 0.1 M solution of lithium perchlorate in methanol, 10 parts of a 0.1 M solution of perchloric acid in acetic acid. square voltage superimposed with constant pulses of +10 millivolts, initial potential: 500 millivolts, scanning voltage: 1000 millivolts in the anode direction, oxidation at the vitreous carbon electrode (speed of rotation: 2000 r.p.m.)

[3] = thermostability of rigid vinyl chloride-vinylidene chloride copolymer, ventilated oven at 210° C.; details: 0.15 p.c.r.; Example 29
Method: Rigid copolymer formula vinyl chloride-vinylidene chloride copolymer.
Passage through a ventilated oven at 210° C.
Passage through ventilated oven at 210° C.
Passage in ventilated oven at 210° C.

[4] = migration of stabiliser from PVC bottles into water at 50° C.; format: physicochemical; details: water 50° C.
Method: 2.2--Study of the migration
The migration or the extractability of the stabiliser from the PVC compound under the effect of various liquids (and particularly water) stored in a plastic container is of essential importance for the use of these stabilisers in the field of food packagings.
(§1) The technique as regards extraction was the following: using the formula which is given below, a batch of bottles (volume 1 liter, diameter 70 mm, height.perspectiveto.230 mm) was prepared, the said bottles being filled with a liquid simulating the foods. […] The migration of the stabiliser was judged by dosage of the pyridine present in the extractum, using the dosage method which is later described. This pyridine obviously represents the oxidised form of the extracted 1,4-dihydropyridine.
The investigation was particularly developed for water at 50° C. over a period of 2 months, because it represents the important problem regarding the packaging of mineral waters.
Formula for the manufacture of bottles
The S L 2016 is a solution of zinc 2-ethyl hexanoate in a mixture of aromatic hydrocarbons boiling from 158° to 184° C.
(§2) The stabilisers are measured out in the form of their oxidation product (pyridine).
(§3) The oxidation is made quantitative by adding a few drops of iodine to the solution. The latter is then extracted with chloroform and the chloroform is evaporated to a small residual volume. The solution obtained is then subjected to thin-film chromatography, by comparison with solutions of known concentration of the desired pyridines.
(§4) The sensitivity threshold of this technique is 5 μg/liter.

[5] = stabilisation of plasticised polyvinyl chloride resins: mixing at 180° C., pressing at 170° C.; details: for Colour stability / Thermal stability: 180° C.
Method: Sheets of polyvinyl chloride, previously mixed for 5 minutes at 180° C., were pressed for 5 minutes at 170° C., and the colour stability and the heat stability after mixing, and then the coloration of the sheets after pressing, were observed.
As adjuvants, as well as the stabiliser to be tested, the resin in question contains wax E, dioctyl phthalate, barium stearate and cadmium stearate, in the following proportions: […]

[6] = sublimation at 160° C. for 6 hours under nitrogen; format: physicochemical; details: for % of sublimed product: 160° C., 6 hours, nitrogen
Method: A test sample of about 130 mg of the product to be investigated is introduced into a 100 cc beaker. The latter is placed in a 250 cc reactor. The temperature is kept at 160° C. by means of a thermostatically controlled oil bath for 6 hours, the atmosphere of the reactor being inert (nitrogen) in order to avoid the oxidation of the 1,4-dihydropyridine into pyridine, which is more sublimable.
For each dihydropyridine derivative which is investigated, the result is expressed as a percentage of sublimed product relatively to the quantity being used.

[7] = migration of stabiliser from PVC into solutions or solvents simulating foods at 50° C.; format: physicochemical
Method: as §1, §2, §3, §4
For justifying the possibility of using the dihydropyridines (I) having a radical R comprising from 9 to 22 carbon atoms in applications concerned with food packaging, other than those applications relating to mineral waters, the extractability of the dihydropyridines by several solutions or solvents having the following composition, by weight, was investigated:
(a) water-sodium chloride: 97-3
(b) water-saccharose: 90-10
(c) water-sodium chloride-acetic acid: 98.5-0.5-1
(d) water-citric acid (solution at pH=5): 98-2
(e) water-acetic acid: 97-3
(f) water-acetic acid: 90-10
(h) water-acetic acid: 50-50

[8] = resin 5: 0.1, Ba 0.375, Cd 0.375
[9] = resin 7: 0.05, Ba 0.375, Cd 0.15
[10] = resin 9: 0.05, Ba 0.375, Cd 0.05
[11] = Water/C2H5OH (50:50), 0.3, 1 month
[12] = Water/C2H5OH (85:15), 0.3, 1 month
[13] = Water/C2H5OH (85:15), 0.3, 2 months
[14] = Water/CH3COOH (50:50), 0.3, 1 month
[15] = Water/CH3COOH (90:10), 0.3, 1 month
[16] = Water/CH3COOH (90:10), 0.3, 2 months
[17] = Water/CH3COOH (97:3), 0.3, 1 month
[18] = Water/CH3COOH (97:3), 0.3, 2 months
[19] = Water/NaCl/CH3COOH (98,5:0,5:1), 0.3, 1 month
[20] = Water/NaCl/CH3COOH (98,5:0,5:1), 0.3, 2 months
[21] = Water/Sacchrose (90:10), 0.3, 1 month
[22] = Water/Sacchrose (90:10), 0.3, 2 months
[23] = Water/citric acid (98:2), pH 5, 0.3, 1 month
[24] = Water/citric acid (98:2), pH 5, 0.3, 2 months

Row | Oxidation potential [1] | Oxidation potential [2] [millivolts] | Migration ([4]; 0.15 pct, 1 month) [µg/L] | Migration ([4]; 0.15 pct, 2 months) [µg/L] | Migration ([4]; 0.15 pct, 10 days) [µg/L] | Migration ([4]; 0.15 pct, 20 days) [µg/L] | Migration ([4]; 0.30 pct, 1 month) [µg/L] | Migration ([4]; 0.30 pct, 2 months) [µg/L] | Migration ([4]; 0.30 pct, 10 days) [µg/L] | Migration ([4]; 0.30 pct, 20 days) [µg/L] | % of sublimed product [6] [%] | Migration ([7]; H2O/NaCl (97:3), 0.3, 1 month) [µg/L] | Migration ([7]; H2O/NaCl (97:3), 0.3, 2 months) [µg/L] | Migration ([7]; Heptane, 0.3 pcr, after 36 h) [µg/L] | Migration ([7]; Heptane, 0.3 pcr, after 84 h) [µg/L] | Migration [7, 11] [µg/L] | Migration [7, 12] [µg/L] | Migration [7, 13] [µg/L] | Migration [7, 14] [µg/L] | Migration [7, 15] [µg/L] | SMILES | further results
1 | 1.11 ± 0.02 | 1163 | – | – | – | – | – | – | – | – | – | – | – | – | – | – | – | – | – | – | Cc1cc(C(C)(C)C)c(O)c(C(C)(C)C)c1 [BHT, Di-tert.-2,6-butyl-4-methyl phenol, reference compound] | –
2 | 0.74 ± 0.01 | 850 | 70 | 80 | 15 | 40 | 120 | 120 | 70 | 100 | 34.2 | 100 | 120 | 300 | 390 | 250 | 150 | 180 | 150 | 120 | COC(=O)C1=C(C)NC(C)=C(C(=O)OC)C1 [L.28504, 2,6-Dimethyl-3,5-dicarbomethoxy-1,4-dihydropyridine] | thermostabilisation of copolymer versus 2-phenyl indole [3]: better result than 0.3 p.c.r. of 2-phenyl indole; Colour stability [5, 8]: 50 min; Thermal stability [5, 8]: 50 min; Colour stability [5, 9]: 45 min; Thermal stability [5, 9]: 55 min; Colour stability [5, 10]: 35 min; Thermal stability [5, 10]: 50 min; basic shade and thermal stability ([5]; words): substantially improves the basic shade and clearly increases the thermal stability; sublimation ([6]; of the quantity of product being used): 34%; Migration ([7]; Water/CH3COOH (50:50), 0.3, 2 months): 200 µg/L; Migration [7, 16]: 140 µg/L; Migration [7, 17]: 90 µg/L; Migration [7, 18]: 120 µg/L; Migration [7, 19]: 110 µg/L; Migration [7, 20]: 120 µg/L; Migration [7, 21]: 100 µg/L; Migration [7, 22]: 100 µg/L; Migration [7, 23]: 110 µg/L; Migration [7, 24]: 130 µg/L
3 | – | 783 | < 5 | < 5 | < 5 | < 5 | < 5 | < 5 | < 5 | < 5 | 1.7 | < 5 | < 5 | 120 | 150 | 50 | < 5 | < 5 | 25 | < 5 | CCCCCCCCCCCCOC(=O)C1=C(C)NC(C)=C(C(=O)OCCCCCCCCCCCC)C1 [L.28507, 2,6-Dimethyl-3,5-dicarbododecyloxy-1,4-dihydropyridine] | Migration [7, 16]: < 5 µg/L; Migration [7, 17]: < 5 µg/L; Migration [7, 18]: < 5 µg/L; Migration [7, 19]: < 5 µg/L; Migration [7, 20]: < 5 µg/L; Migration [7, 21]: < 5 µg/L; Migration [7, 22]: < 5 µg/L; Migration [7, 23]: < 5 µg/L; Migration [7, 24]: < 5 µg/L
4 | – | 732 | < 5 | < 5 | < 5 | < 5 | < 5 | < 5 | < 5 | < 5 | 0.1 | < 5 | < 5 | – | – | – | – | – | – | – | CCCCCCCCCCCCCCOC(=O)C1=C(C)NC(C)=C(C(=O)OCCCCCCCCCCCCCC)C1 [L.28590, 2,6-Dimethyl-3,5-dicarbotetradecyloxy-1,4-dihydropyridine] | –
